From patent publication US20230365933A1, “COMPOSITIONS AND METHODS FOR INCREASING STEM CELL FUNCTION” (SOCIETE DES PRODUITS NESTLE S.A., priority 2020, published 2023)
Entries after “also recorded” stand apart in the source; their conditions may differ.

Tests used:
[1] = test system: murine HSCs (LKS CD150+CD48−); assay: Mitochondrial membrane potential by TMRM staining and flow cytometry in cultured mHSCs; assay type: cell-based, mouse; conditions: compared to Basal condition; NR 500 uM, Vit B12 (MC) 100 uM; day 3 of culture
Procedure: Flow cytometry analysis was performed on freshly isolated bone marrow (BM) from C57BI6 mice. BM was extracted from crushed femora and tibia. Cell suspension was filtered through a 70 μm cell strainer and erythroid cells were eliminated by incubation with red blood cell lysis buffer (eBioscences). Isolation and stains were performed in ice-cold PBS 1 mM EDTA. Lineage positive cells were then removed with a magnetic lineage depletion kit (BD biosciences). Cell suspensions were then stained with specific antibodies for the stem cell compartment and sorted by FACS (BD FACS Aria III) into 1.5 ml Eppendorf tubes.
The following antibodies were used in this study: rat mAbs against cKit (2B8), Sca1 (D7), CD150 (TC-15-12F12.2), CD48 (HM48-1). The antibodies were purchased from Biolegend, eBiosciences and BD. A mixture of biotinylated mAbs against CD3, CD11b, CD45R/B220, Ly-6G, Ly-6C and TER-119 was used as lineage marker (“lineage cocktail”) and was purchased from BD. DAPI or propidium iodine (PI) staining was used for live/dead cell discrimination.
Murine HSCs were sorted into 1.5 ml Eppendorf tubes and were cultured in Stemline II (SIGMA) supplemented with 100 ng/ml SCF (R&D) and 2 ng/ml Flt3 (R&D). This was defined as the basal condition. Different concentrations as indicated of NR and Vit B12 (MC) were added in specific wells. NR was supplemented every 24 hours.
Mouse HSCs already in culture were incubated at 37° C. for 1 hour with 200 nM tetramethylrhodamine methyl ester (TMRM; Invitrogen) and 100 nM Mitotracker green. Cells were then washed with FACS buffer and analysed by flow cytometry on a BD LSR II.
Freshly FACS sorted mHSCs (LKS CD150+CD48−) were cultured in basal media (Stemline+SCF+FLT3L) supplemented with UroA, NR and MC in specific wells (as indicated). Cells were harvested at day 3 and stained with tetramethylrhodamine methyl ester (TMRM; to measure mitochondria membrane potential) and Mitotracker (to measure mitochondrial mass), and analysed by flow cytometry.

human HSCs = conditions: culture media supplemented with nicotinamide riboside, primary and secondary recipient humanised mice; cited from earlier work

Row | SMILES | TMRM fluorescent intensity (Mean Fluorescence Intensity, MFI) [1] | proportion of cells in the TMRM low gate [1] | levels of engraftment (human HSCs) | long-term blood production (human HSCs)
1 | NC(=O)c1ccc[n+]([C@@H]2O[C@H](CO)[C@@H](O)[C@H]2O)c1 [NR, Nicotinamide riboside] | significantly decreased; also recorded: decreases | significantly increased; also recorded: increases | significantly higher levels of engraftment | capable of sustaining long-term blood production
2 | C/C1=C2/[N-][C@H]([C@H](CC(N)=O)[C@@]2(C)CCC(=O)NC[C@@H](C)OP(=O)([O-])O[C@H]2[C@@H](O)[C@@H](n3cnc4cc(C)c(C)cc43)O[C@@H]2CO)[C@]2(C)N=C(/C(C)=C3N=C(/C=C4N=C1[C@@H](CCC(N)=O)C\4(C)C)[C@@H](CCC(N)=O)[C@]\3(C)CC(N)=O)[C@@H](CCC(N)=O)[C@]2(C)CC(N)=O.[CH3-].[Co] [MC, methylcobalamine] | significantly decreased; also recorded: decreases | significantly increased; also recorded: increases | – | –
